IC50 data for 33 molecules are collected here from patent publication US9676757B2, “Heterocyclic compounds as NaV channel inhibitors and uses thereof” (Merck Patent GmbH, priority 2014, dated 2017).

The target of the experiment is Nav1.6 (Homo sapiens, UniProt Q9UQD0). Briefly: Nav two-pulse protocol, IonWorks Quattro electrophysiology. In kind it is cell-based. Conditions: -120 mV to 0 mV, compound incubated 300 s. In outline: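 Two-pulse protocol on IonWorks Quattro with amphotericin B (200 μg/ml) perforated patch: holding −120 mV, 2.5 s step to 0 mV, 5 ms gap, 20 ms step to 0 mV. Compounds (0.3% DMSO final) incubated 300 s; block taken as Post/Pre peak inward current for each pulse.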
Nav1.6, sequence (Q9UQD0 whole entry): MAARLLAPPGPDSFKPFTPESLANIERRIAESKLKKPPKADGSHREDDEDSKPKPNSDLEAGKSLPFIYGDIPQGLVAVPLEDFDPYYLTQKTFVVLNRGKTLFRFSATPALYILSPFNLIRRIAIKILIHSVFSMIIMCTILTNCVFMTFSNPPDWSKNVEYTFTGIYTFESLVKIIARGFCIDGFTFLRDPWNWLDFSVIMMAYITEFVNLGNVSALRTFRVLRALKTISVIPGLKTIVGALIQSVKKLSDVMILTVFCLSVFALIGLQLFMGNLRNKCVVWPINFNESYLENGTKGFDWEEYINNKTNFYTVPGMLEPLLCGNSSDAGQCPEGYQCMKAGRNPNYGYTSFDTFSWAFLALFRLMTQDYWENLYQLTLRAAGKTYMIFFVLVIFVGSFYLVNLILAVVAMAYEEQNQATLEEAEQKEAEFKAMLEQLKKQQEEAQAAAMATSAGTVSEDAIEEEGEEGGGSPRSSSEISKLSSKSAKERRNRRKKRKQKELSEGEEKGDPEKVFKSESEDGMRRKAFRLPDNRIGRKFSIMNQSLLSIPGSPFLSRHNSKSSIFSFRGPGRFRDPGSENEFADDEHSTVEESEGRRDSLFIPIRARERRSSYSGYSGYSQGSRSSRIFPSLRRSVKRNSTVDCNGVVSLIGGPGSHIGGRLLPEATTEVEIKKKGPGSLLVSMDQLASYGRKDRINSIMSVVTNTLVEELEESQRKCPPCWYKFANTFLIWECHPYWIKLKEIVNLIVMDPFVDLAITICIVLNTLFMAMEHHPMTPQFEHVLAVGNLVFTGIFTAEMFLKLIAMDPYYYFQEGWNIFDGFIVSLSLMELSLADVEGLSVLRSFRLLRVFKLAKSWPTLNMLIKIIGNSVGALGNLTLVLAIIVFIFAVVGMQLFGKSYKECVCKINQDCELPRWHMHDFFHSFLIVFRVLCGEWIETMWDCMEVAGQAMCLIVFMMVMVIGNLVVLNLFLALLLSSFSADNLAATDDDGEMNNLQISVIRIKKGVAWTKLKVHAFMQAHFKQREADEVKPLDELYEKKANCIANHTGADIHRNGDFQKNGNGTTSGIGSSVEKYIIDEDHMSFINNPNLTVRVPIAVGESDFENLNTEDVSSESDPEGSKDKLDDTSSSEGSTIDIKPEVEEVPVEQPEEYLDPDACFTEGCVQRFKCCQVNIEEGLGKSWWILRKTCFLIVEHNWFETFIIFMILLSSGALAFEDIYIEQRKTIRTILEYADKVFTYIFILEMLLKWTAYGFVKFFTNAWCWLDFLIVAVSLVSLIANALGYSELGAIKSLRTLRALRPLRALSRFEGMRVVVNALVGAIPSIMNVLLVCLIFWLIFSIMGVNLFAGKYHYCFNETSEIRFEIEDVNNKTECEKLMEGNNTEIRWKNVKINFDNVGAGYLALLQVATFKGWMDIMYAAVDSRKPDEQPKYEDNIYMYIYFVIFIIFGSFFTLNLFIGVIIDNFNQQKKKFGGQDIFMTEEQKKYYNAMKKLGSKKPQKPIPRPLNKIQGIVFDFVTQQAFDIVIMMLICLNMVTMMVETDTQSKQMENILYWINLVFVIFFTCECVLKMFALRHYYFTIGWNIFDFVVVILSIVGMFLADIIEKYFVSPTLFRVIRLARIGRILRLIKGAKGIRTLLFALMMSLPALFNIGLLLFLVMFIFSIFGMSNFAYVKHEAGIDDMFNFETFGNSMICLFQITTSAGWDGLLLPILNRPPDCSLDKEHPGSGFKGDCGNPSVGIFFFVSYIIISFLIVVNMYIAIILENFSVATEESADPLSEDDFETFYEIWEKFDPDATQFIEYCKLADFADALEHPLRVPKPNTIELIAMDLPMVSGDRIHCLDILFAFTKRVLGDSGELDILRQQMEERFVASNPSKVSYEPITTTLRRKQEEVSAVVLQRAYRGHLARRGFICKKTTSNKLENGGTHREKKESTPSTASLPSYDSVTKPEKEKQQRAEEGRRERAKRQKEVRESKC

The structures appear in SMILES notation. Where two headings read alike, the source gives them in different places.

For the molecule `CC(C)COc1cccc(CN2CCC(COCc3ccccn3)C2)c1` (stereo not drawn) [Compound 35, 2-[1-(3-Isobutoxy-benzyl)-pyrrolidin-3-ylmethoxymethyl]-pyridine], the IC50 (read-out: Nav1.6 Tonic) is > 20 µM and the IC50 (read-out: Nav1.6 inac) was in the range of 1 to 5 µM.
With `CC(C)C[S+]([O-])c1cccc(CN2CCC(C(=O)NCc3ccccn3)C2)c1` (stereo not drawn) [Compound 42, 1-[3-(2-Methyl-propane-1-sulfinyl)-benzyl]-pyrrolidine-3-carboxylic acid (pyridin-2-ylmethyl)-amide], the IC50 reads like this: (read-out: Nav1.6 Tonic) > 20 µM; (read-out: Nav1.6 inac) > 5 µM.
Take `O=C(NCc1ccccn1)C1CCN(Cc2ccc(F)c(Oc3ccccc3)c2)C1` (stereo not drawn) [Compound 15, 1-(4-Fluoro-3-phenoxy-benzyl)-pyrrolidine-3-carboxylic acid (pyridin-2-ylmethyl)-amide]: the IC50 by setting is: (read-out: Nav1.6 Tonic) > 20 µM; (read-out: Nav1.6 inac) > 5 µM.
For `CC(C)COc1cccc(CN2CCC(n3cc(-c4cccc(Br)n4)nn3)C2)c1` (stereo not drawn) [Compound 63, 2-Bromo-6-{1-[1-(3-isobutoxy-benzyl)-pyrrolidin-3-yl]-1H-[1,2,3]triazol-4-yl}-pyridine], the IC50 reads like this: (read-out: Nav1.6 Tonic) > 20 µM; (read-out: Nav1.6 inac) > 5 µM.
The like results for `CCNC(=O)C1CN(Cc2cccc(Oc3ccccc3)c2)CCO1` (stereo not drawn) [Compound 100, 4-(3-Phenoxy-benzyl)-morpholine-2-carboxylic acid ethylamide] were, in that order, 10 to 20 µM and 1 to 5 µM.
Regarding `O=C(NCc1ccccn1)C1CCN(Cc2cccc(Oc3ccc(F)cc3F)c2)C1` (stereo not drawn) [Compound 8, 1-[3-(2,4-Difluoro-phenoxy)-benzyl]-pyrrolidine-3-carboxylic acid (pyridin-2-ylmethyl)-amide], the IC50 runs as follows: (read-out: Nav1.6 Tonic) > 20 µM; (read-out: Nav1.6 inac) < 1 µM.
Consider `CC(C)CS(=O)(=O)c1cccc(CN2CCC(C(=O)OCc3ccccn3)C2)c1` (stereo not drawn) [Compound 47, 1-[3-(2-Methyl-propane-1-sulfonyl)-benzyl]-pyrrolidine-3-carboxylic acid pyridin-2-ylmethyl ester], for which the IC50 runs as follows: (read-out: Nav1.6 Tonic) > 20 µM; (read-out: Nav1.6 inac) 1 to 5 µM.
Consider `O=C(NCc1ccccn1)C1(Cl)CCN(Cc2cccc(Oc3ccccc3)c2)C1=O` (stereo not drawn) [Compound 95, 3-Chloro-2-oxo-1-(3-phenoxy-benzyl)-pyrrolidine-3-carboxylic acid (pyridin-2-ylmethyl)-amide], for which the IC50 (read-out: Nav1.6 Tonic) is > 20 µM and the IC50 (read-out: Nav1.6 inac) is > 5 µM.
For the molecule `CCC(NC(=O)C1(C)CCN(Cc2cccc(Oc3ccccc3)c2)C1)c1cccnc1` (stereo not drawn) [Compound 103, 3-Methyl-1-(3-phenoxy-benzyl)-pyrrolidine-3-carboxylic acid (1-pyridin-3-yl-propyl)-amide], the IC50 (read-out: Nav1.6 Tonic) is > 20 µM and the IC50 (read-out: Nav1.6 inac) is > 5 µM.
As to `Cc1cccc(Oc2cccc(CN3CCC(F)(C(=O)NCc4ccccn4)C3)c2)c1` (stereo not drawn) [Compound 21, 3-Fluoro-1-(3-m-tolyloxy-benzyl)-pyrrolidine-3-carboxylic acid (pyridin-2-ylmethyl)-amide], the IC50 was > 20 µM (read-out: Nav1.6 Tonic) and 1 to 5 µM (read-out: Nav1.6 inac).
Regarding `CC(C)c1ccc(Oc2cccc(CN3CCC(F)(C(=O)NCc4ccccn4)C3)c2)cc1` (stereo not drawn) [Compound 26, 3-Fluoro-1-[3-(4-isopropyl-phenoxy)-benzyl]-pyrrolidine-3-carboxylic acid (pyridin-2-ylmethyl)-amide], the IC50 is, setting by setting: (read-out: Nav1.6 Tonic) > 20 µM; (read-out: Nav1.6 inac) 1 to 5 µM.
Turning to `O=C(NCc1cccs1)C1CCN(Cc2cccc(Oc3ccccc3)c2)C1` (stereo not drawn) [Compound 88, 1-(3-Phenoxy-benzyl)-pyrrolidine-3-carboxylic acid (thiophen-2-ylmethyl)-amide], the IC50 was > 20 µM (read-out: Nav1.6 Tonic) and < 1 µM (read-out: Nav1.6 inac).
Turning to `COCCNC(=O)C1CN(Cc2cccc(Oc3ccccc3)c2)CCO1` (stereo not drawn) [Compound 107, 4-(3-Phenoxy-benzyl)-morpholine-2-carboxylic acid (2-methoxy-ethyl)-amide], the IC50 reads like this: (read-out: Nav1.6 Tonic) > 20 µM; (read-out: Nav1.6 inac) 1 to 5 µM.
In the case of `O=C(NCC1CCCO1)C1CCN(Cc2cccc(Oc3ccccc3)c2)C1` (stereo not drawn) [Compound 87, 1-(3-Phenoxy-benzyl)-pyrrolidine-3-carboxylic acid (tetrahydro-furan-2-ylmethyl)-amide], the IC50 is < 10 µM (read-out: Nav1.6 Tonic) and < 1 µM (read-out: Nav1.6 inac).
As for `CC(C)COc1cccc(CN2CCC(Cn3ccnc3)C2)c1` (stereo not drawn) [Compound 28, 1-[1-(3-Isobutoxy-benzyl)-pyrrolidin-3-ylmethyl]-1H-imidazole], the IC50 is, setting by setting: (read-out: Nav1.6 Tonic) > 20 µM; (read-out: Nav1.6 inac) < 1 µM.
In the same order, the values of `Cc1cccnc1-c1nc(C2CCN(Cc3cccc(OCC(C)C)c3)C2)no1` (stereo not drawn) [Compound 51, 2-{3-[1-(3-Isobutoxy-benzyl)-pyrrolidin-3-yl]-[1,2,4]oxadiazol-5-yl}-3-methyl-pyridine] are > 20 µM and 1 to 5 µM.
In the case of `COc1ccccc1CNC(=O)C1CCN(Cc2cccc(Oc3ccccc3)c2)C1` (stereo not drawn) [Compound 65, 1-(3-Phenoxy-benzyl)-pyrrolidine-3-carboxylic acid 2-methoxy-benzylamide], the IC50 (read-out: Nav1.6 Tonic) is > 20 µM and the IC50 (read-out: Nav1.6 inac) was < 1 µM.
Turning to `O=C(NCc1nc(-c2ccccc2)cs1)C1CCN(Cc2cccc(Oc3ccccc3)c2)C1` (stereo not drawn) [Compound 85, 1-(3-Phenoxy-benzyl)-pyrrolidine-3-carboxylic acid (4-phenyl-thiaz-1-2-ylmethyl)-amide], the IC50 runs as follows: (read-out: Nav1.6 Tonic) > 20 µM; (read-out: Nav1.6 inac) 1 to 5 µM.
The like results for `O=C(NCc1ccc(C(F)(F)F)cc1)C1CCN(Cc2cccc(Oc3ccccc3)c2)C1` (stereo not drawn) [Compound 71, 1-(3-Phenoxy-benzyl)-pyrrolidine-3-carboxylic acid 4-trifluoromethyl-benzylamide] were, in that order, 10 to 20 µM and 1 to 5 µM.
The like results for `O=C(NCc1cccc(F)c1)C1CCN(Cc2cccc(Oc3ccccc3)c2)C1` (stereo not drawn) [Compound 74, 1-(3-Phenoxy-benzyl)-pyrrolidine-3-carboxylic acid 3-fluoro-benzylamide] were, in that order, 10 to 20 µM and 1 to 5 µM.
With `COc1cccc(Oc2cccc(CN3CCC(F)(C(=O)NCc4ccccn4)C3)c2)c1` (stereo not drawn) [Compound 23, 3-Fluoro-1-[3-(3-methoxy-phenoxy)-benzyl]-pyrrolidine-3-carboxylic acid (pyridin-2-ylmethyl)-amide], the IC50 by setting is: (read-out: Nav1.6 Tonic) > 20 µM; (read-out: Nav1.6 inac) 1 to 5 µM.
For `O=C(NCc1ccccn1)C1CCN(Cc2cccc(Oc3ccccn3)c2)C1` (stereo not drawn) [Compound 4, 1-[3-(Pyridin-2-yloxy)-benzyl]-pyrrolidine-3-carboxylic acid (pyridin-2-ylmethyl)-amide], the IC50 was 10 to 20 µM (read-out: Nav1.6 Tonic) and < 1 µM (read-out: Nav1.6 inac).
In the case of `CC(C)COc1cccc(CN2CCC(c3noc(-c4ncccc4F)n3)C2)c1` (stereo not drawn) [Compound 50, 3-Fluoro-2-{3-[1-(3-isobutoxy-benzyl)-pyrrolidin-3-yl]-[1,2,4]oxadiazol-5-yl}-pyridine], the IC50 by setting is: (read-out: Nav1.6 Tonic) > 20 µM; (read-out: Nav1.6 inac) > 5 µM.
For `Cc1ccc(CNC(=O)C2CCN(Cc3cccc(Oc4ccccc4)c3)C2)o1` (stereo not drawn) [Compound 91, 1-(3-Phenoxy-benzyl)-pyrrolidine-3-carboxylic acid (5-methyl-furan-2-ylmethyl)-amide], the IC50 reads like this: (read-out: Nav1.6 Tonic) > 20 µM; (read-out: Nav1.6 inac) > 5 µM.
With `O=C(NCc1cccc(C(F)(F)F)c1)C1CCN(Cc2cccc(Oc3ccccc3)c2)C1` (stereo not drawn) [Compound 70, 1-(3-Phenoxy-benzyl)-pyrrolidine-3-carboxylic acid 3-trifluoromethyl-benzylamide], the IC50 (read-out: Nav1.6 Tonic) was in the range of 10 to 20 µM and the IC50 (read-out: Nav1.6 inac) was 1 to 5 µM.
Turning to `O=C(NCc1cccc(C(F)(F)F)n1)C1CCN(Cc2cccc(OCC(F)(F)F)c2)C1` (stereo not drawn) [Compound 92, 1-[3-(2,2,2-Trifluoro-ethoxy)-benzyl]-pyrrolidine-3-carboxylic acid (6-trifluoromethyl-pyridin-2-ylmethyl)-amide], the IC50 is, setting by setting: (read-out: Nav1.6 Tonic) > 20 µM; (read-out: Nav1.6 inac) 1 to 5 µM.
For `CC(C)COc1cccc(CN2CCC(c3noc(-c4ccccn4)n3)C2)c1` (stereo not drawn) [Compound 48, 2-{3-[1-(3-Isobutoxy-benzyl)-pyrrolidin-3-yl]-[1,2,4]oxadiazol-5-yl}-pyridine], the IC50 (read-out: Nav1.6 Tonic) is > 20 µM and the IC50 (read-out: Nav1.6 inac) was in the range of 1 to 5 µM.
Consider `O=C(NCc1cc(F)cc(F)c1)C1CCN(Cc2cccc(Oc3ccccc3)c2)C1` (stereo not drawn) [Compound 76, 1-(3-Phenoxy-benzyl)-pyrrolidine-3-carboxylic acid 3,5-difluoro-benzylamide], for which the IC50 (read-out: Nav1.6 Tonic) lay in the range of 10 to 20 µM and the IC50 (read-out: Nav1.6 inac) was < 1 µM.
Consider `COc1cccc(-c2cn(C3CCN(Cc4cccc(OCC(C)C)c4)C3)nn2)n1` (stereo not drawn) [Compound 62, 2-{1-[1-(3-Isobutoxy-benzyl)-pyrrolidin-3-yl]-1H-[1,2,3]triazol-4-yl}-6-methoxy-pyridine], for which the IC50 runs as follows: (read-out: Nav1.6 Tonic) > 20 µM; (read-out: Nav1.6 inac) 1 to 5 µM.
Take `CCNC(=O)C1(C)CCN(C(=O)c2cccc(Oc3ccccc3)c2)C1` (stereo not drawn) [Compound 40, 3-Methyl-1-(3-phenoxy-benzoyl)-pyrrolidine-3-carboxylic acid ethylamide]: the IC50 (read-out: Nav1.6 Tonic) was in the range of 10 to 20 µM and the IC50 (read-out: Nav1.6 inac) was < 1 µM.
As for `O=C(NCc1ccccn1)C1CN(Cc2cccc(Oc3ccccc3)c2)CCO1` (stereo not drawn) [Compound 105, 4-(3-Phenoxy-benzyl)-morpholine-2-carboxylic acid (pyridin-2-ylmethyl)-amide], the IC50 is > 20 µM (read-out: Nav1.6 Tonic) and 1 to 5 µM (read-out: Nav1.6 inac).
`C[C@]1(C(=O)NCc2ccccn2)CCN(Cc2cccc(Oc3ccccc3)c2)C1` [Compound 38, (S)-3-methyl-1-(3-phenoxybenzyl)-N-(pyridin-2-ylmethyl)pyrrolidine-3-carboxamide]: the IC50 is, setting by setting: (read-out: Nav1.6 Tonic) > 20 µM; (read-out: Nav1.6 inac) > 5 µM.
With `Cc1cccc(-c2cn(C3CCN(Cc4cccc(OCC(C)C)c4)C3)nn2)n1` (stereo not drawn) [Compound 61, 2-{1-[1-(3-Isobutoxy-benzyl)-pyrrolidin-3-yl]-1H-[1,2,3]triazol-4-yl}-6-methyl-pyridine], the IC50 is, setting by setting: (read-out: Nav1.6 Tonic) > 20 µM; (read-out: Nav1.6 inac) > 5 µM.
